Each structure is given as a SMILES string. ≈ marks a conversion by molar mass, not a printed value.

Common to all, as to format: functional
The subject of test [1] is Streptococcus pneumoniae. Nature of the test: Antibacterial activity against erythromycin-resistant Streptococcus pneumoniae 03-458 by broth microdilution method.
The subject of test [2] is Staphylococcus epidermidis. Briefly: Antibacterial activity against methicillin-sensitive Staphylococcus epidermidis 01-1004 by broth microdilution method. (In broth dilution the organism is exposed to a series of concentrations in liquid medium.)
Test [3] has as its system Staphylococcus aureus. Briefly: Antibacterial activity against methicillin-sensitive Staphylococcus aureus 01-431 by broth microdilution method.
Test [4] concerns Staphylococcus aureus. Nature of the test: Antibacterial activity against methicillin-resistant Staphylococcus aureus 01-429 by broth microdilution method.
For test [5], the system named is Staphylococcus aureus. Nature of the test: Antibacterial activity against methicillin-sensitive Staphylococcus aureus 01-481 by broth microdilution method.
For test [6], the system named is Staphylococcus aureus. Briefly: Antibacterial activity against methicillin-resistant Staphylococcus aureus 01-483 by broth microdilution method.
Test [7] relates to Staphylococcus epidermidis. Briefly: Antibacterial activity against methicillin-sensitive Staphylococcus epidermidis 01-1091 by broth microdilution method.
Test [8] deals with Streptococcus pneumoniae. Briefly: Antibacterial activity against erythromycin-resistant Streptococcus pneumoniae 03-451 by broth microdilution method.
For test [9], the system named is Staphylococcus epidermidis. Briefly: Antibacterial activity against methicillin-resistant Staphylococcus epidermidis 01-1059 by broth microdilution method.
For test [10], the system named is Streptococcus pyogenes. Briefly: Antibacterial activity against erythromycin-susceptible Streptococcus pyogenes 01-740 by broth microdilution method.
For test [11], the system named is Staphylococcus aureus. Briefly: Antibacterial activity against methicillin-sensitive Staphylococcus aureus 01-430 by broth microdilution method.
In test [12] the test system is Streptococcus pneumoniae. Briefly: Antibacterial activity against Streptococcus pneumoniae ATCC 49619 by broth microdilution method.
Test [13] concerns Streptococcus pyogenes. Briefly: Antibacterial activity against erythromycin-susceptible Streptococcus pyogenes 01-804 by broth microdilution method.
Test [14] has as its system Staphylococcus aureus. Briefly: Antibacterial activity against methicillin-resistant Staphylococcus aureus 01-433 by broth microdilution method.
The test system of test [15] is Staphylococcus epidermidis. Briefly: Antibacterial activity against methicillin-sensitive Staphylococcus epidermidis 01-1005 by broth microdilution method.
Test [16] has as its system Staphylococcus epidermidis. Nature of the test: Antibacterial activity against methicillin-resistant Staphylococcus epidermidis 01-1090 by broth microdilution method.
For test [17], the system named is Streptococcus pyogenes. Nature of the test: Antibacterial activity against erythromycin-resistant Streptococcus pyogenes 03-680 by broth microdilution method.
Test [18] deals with Streptococcus pneumoniae. Nature of the test: Antibacterial activity against erythromycin-resistant Streptococcus pneumoniae 03-436 by broth microdilution method.
The test system of test [19] is Streptococcus pyogenes. Briefly: Antibacterial activity against erythromycin-susceptible Streptococcus pyogenes 01-469 by broth microdilution method.
Test [20] relates to Staphylococcus epidermidis. Briefly: Antibacterial activity against methicillin-resistant Staphylococcus epidermidis 01-1056 by broth microdilution method.

As a reminder, the MIC is the least concentration at which growth counts as inhibited. A low value points to a more susceptible organism. `C=CCO[C@@H]1C[C@@H](C)C(=O)[C@H](C)[C@H]2OC(=O)O[C@]2(C)[C@@H](CC)OC(=O)[C@H](C)[C@@H](OC(=O)Cc2ccc(Cl)cc2)[C@H](C)[C@H]1OC1O[C@H](C)C[C@H](N(C)C)[C@H]1O` (stereo not given in full): the MIC in test [1] came out at 8 µg/mL (≈ 10.3 µM); in test [2] it was 2 µg/mL (≈ 2.56 µM); in test [3] it was 4 µg/mL (≈ 5.13 µM); in test [4], 16 µg/mL (≈ 20.5 µM); in test [5], 8 µg/mL (≈ 10.3 µM); in test [6], 16 µg/mL (≈ 20.5 µM). The MIC in [7] worked out at 2 µg/mL (≈ 2.56 µM); in test [8], 8 µg/mL (≈ 10.3 µM); in [9], 16 µg/mL (≈ 20.5 µM); in test [10], 0.25 µg/mL (≈ 0.32 µM); in test [11], 4 µg/mL (≈ 5.13 µM); in test [12] it was 1 µg/mL (≈ 1.28 µM). The MIC came out at 0.5 µg/mL (≈ 0.641 µM) in test [13]; 16 µg/mL (≈ 20.5 µM) in test [14]; 2 µg/mL (≈ 2.56 µM) in test [15]; 16 µg/mL (≈ 20.5 µM) in test [16]; 8 µg/mL (≈ 10.3 µM) in test [17]; 16 µg/mL (≈ 20.5 µM) in test [18]. The results for the MIC in test [19] and in test [20] were 0.5 µg/mL (≈ 0.641 µM) and 32 µg/mL (≈ 41 µM), respectively.

Regarding `CC[C@H]1OC(=O)[C@H](C)[C@@H](O[C@H]2C[C@@](C)(OC)[C@@H](O)[C@H](C)O2)[C@H](C)[C@@H](O[C@@H]2O[C@H](C)C[C@H](N(C)C)[C@H]2O)[C@](C)(OC)C[C@@H](C)C(=O)[C@H](C)[C@@H](O)[C@]1(C)O` [CLARITHROMYCIN], the MIC in test [1] stood at 256 µg/mL (≈ 342 µM); in test [2], 0.125 µg/mL (≈ 0.167 µM); in test [3], 0.25 µg/mL (≈ 0.334 µM); in test [4] it was 256 µg/mL (≈ 342 µM); in test [5] it was 0.5 µg/mL (≈ 0.668 µM); in test [6] it was 256 µg/mL (≈ 342 µM). For the same molecule, the MIC in test [7] was 0.125 µg/mL (≈ 0.167 µM); in test [8] it was 32 µg/mL (≈ 42.8 µM); in test [9] it was 256 µg/mL (≈ 342 µM); in test [10] it was 0.062 µg/mL (≈ 0.0829 µM); in [11], 0.25 µg/mL (≈ 0.334 µM); in [12], 0.25 µg/mL (≈ 0.334 µM). The MIC in [13] stood at 0.125 µg/mL (≈ 0.167 µM); in test [14], 256 µg/mL (≈ 342 µM); in test [15], 0.125 µg/mL (≈ 0.167 µM); in test [16], 256 µg/mL (≈ 342 µM); in test [17] it was 256 µg/mL (≈ 342 µM); in test [18] it was 128 µg/mL (≈ 171 µM). Further, the MIC stood at 0.062 µg/mL (≈ 0.0829 µM) in test [19] and 256 µg/mL (≈ 342 µM) in test [20].

On to `C=CCO[C@@H]1C[C@@H](C)C(=O)[C@H](C)[C@H]2OC(=O)O[C@]2(C)[C@@H](CC)OC(=O)[C@H](C)[C@@H](OC(=O)Cc2ccc3c(c2)OCO3)[C@H](C)[C@H]1O[C@@H]1O[C@H](C)C[C@H](N(C)C)[C@H]1O`, for which the MIC in test [1] came to 2 µg/mL (≈ 2.53 µM); in [2] it was 0.5 µg/mL (≈ 0.633 µM); in test [3] it was 0.5 µg/mL (≈ 0.633 µM); in test [4], 32 µg/mL (≈ 40.5 µM); in test [5] it was 1 µg/mL (≈ 1.27 µM); in test [6], 1 µg/mL (≈ 1.27 µM). For the same molecule, the MIC in test [7] was 0.5 µg/mL (≈ 0.633 µM); in [8], 4 µg/mL (≈ 5.06 µM); in test [9] it was 1 µg/mL (≈ 1.27 µM); in test [10], 0.016 µg/mL (≈ 0.0203 µM); in test [11], 0.5 µg/mL (≈ 0.633 µM); in test [12], 0.062 µg/mL (≈ 0.0785 µM). The minimal inhibitory concentration (MIC) in test [13] turned out to be 0.031 µg/mL (≈ 0.0392 µM); in [14], 32 µg/mL (≈ 40.5 µM); in test [15] it was 0.5 µg/mL (≈ 0.633 µM); in test [16], 1 µg/mL (≈ 1.27 µM); in test [17] it was 16 µg/mL (≈ 20.3 µM); in [18], 8 µg/mL (≈ 10.1 µM). For the same molecule, the MIC in test [19] was determined as 0.016 µg/mL (≈ 0.0203 µM); in test [20], 32 µg/mL (≈ 40.5 µM).

For `C=CCO[C@@H]1C[C@@H](C)C(=O)[C@H](C)[C@H]2OC(=O)O[C@]2(C)[C@@H](CC)OC(=O)[C@H](C)[C@@H](OC(=O)Cc2cccnc2)[C@H](C)[C@H]1O[C@@H]1O[C@H](C)C[C@H](N(C)C)[C@H]1O`, the minimum inhibitory concentration (MIC) in [1] stood at 2 µg/mL (≈ 2.68 µM); in [2] it was 0.5 µg/mL (≈ 0.669 µM); in [3] it was 1 µg/mL (≈ 1.34 µM); in test [4] it was 32 µg/mL (≈ 42.8 µM); in test [5], 2 µg/mL (≈ 2.68 µM); in test [6] it was 8 µg/mL (≈ 10.7 µM). The MIC is 0.5 µg/mL (≈ 0.669 µM) in test [7]; 2 µg/mL (≈ 2.68 µM) in test [8]; 32 µg/mL (≈ 42.8 µM) in test [9]; 0.125 µg/mL (≈ 0.167 µM) in test [10]; 1 µg/mL (≈ 1.34 µM) in test [11]; 0.25 µg/mL (≈ 0.335 µM) in test [12]. Moreover, the MIC is 0.125 µg/mL (≈ 0.167 µM) in [13]; 32 µg/mL (≈ 42.8 µM) in test [14]; 0.5 µg/mL (≈ 0.669 µM) in [15]; 2 µg/mL (≈ 2.68 µM) in [16]; 16 µg/mL (≈ 21.4 µM) in [17]; 2 µg/mL (≈ 2.68 µM) in test [18]. For the same molecule, the MIC in test [19] was 0.125 µg/mL (≈ 0.167 µM); in test [20], 32 µg/mL (≈ 42.8 µM).

Values taken from ChEMBL document CHEMBL1148023, “Synthesis and antibacterial activity of derivatives of 6-O-allylic acylides” (2007).
